Source: patent publication EP0326490B2, “Synthetic peptides and mixtures thereof for detecting HIV antibodies” (ADALTIS INC., priority 1988, dated 2004)
Positions of bridges follow the written chain, without caps; N, C: chain ends. Residues, ends and D or L forms follow the SMILES beside them. No end group written: not given here.

Tests used:
HIV-1 positive sera [1] = assay: ELISA, single peptides identifying HIV-1 positive sera; type: binding, human; settings: single gp41 or gp120 peptide
Method: According to this test a peptide or a peptide mixture of the present invention is adsorbed onto the wells of a microtiter plate. The wells are then treated with sera to be tested. After washing, anti-human IgG labeled with peroxidase is added to the wells. The determination of the peroxidase is performed with a corresponding substrate, e.g. with o-phenylene diamine. Also in this procedure the peroxidase can be exchanged by another label, e.g. by a radioactive or fluorescence label.
Each well of the microtiter plate is saturated with 100 µl of a solution containing a peptide or mixture of peptides (5 µg/ml) and left overnight. The wells are emptied and washed twice with a washing buffer (Tris, 0.043M; NaCl, 0.5M;thimerosal, 0.01% w/v; Tween 20, 0.05% v/v; pH 7.4). The wells are then saturated with […] of washing buffer for 1 hr. at 37°C and washed once with the same buffer. Serum samples to be analyzed are diluted with specimen buffer (washing buffer plus casein, 0.05% w/v). The bells are rinsed with washing buffer prior to the addition of the diluted serum sample (0.1 ml). These are left to incubate for 1 hr. at room temperature. The wells are then emptied, washed twice rapidly and then once for two minutes with washing buffer. […] The wells are then emptied and washed twice rapidly with washing buffer and then five times in which the buffer was in contact with the well 2 minutes per washing. The substrate solution (3,3', 5,5'-tetramethylbenzidine, 8 mg per ml of DMSO) is diluted with 100 volumes 0.1 M citrate-acetate buffer, pH 5.6 containing 0.1% v/v of 30% H2O2 and added to each well (0.1 ml per well). After 10 minutes the contents of each well is treated with 0.1 ml 2N H2SO4 and the optical density read at 450 nm. All determinations are done in duplicate.

HIV-1 positive sera [2] = settings: cited from earlier work; for HIV-1 positive sera reacting of sera tested: J. Virol. 61, 2639-2641, 1987
[3] = Stability of linear and cyclic peptide in coating buffers (HPLC, Ellman's test); type: physicochemical
Text: Even though results presented in TABLE 5 clearly show the superiority of cyclic peptides over their linear counterpart in detecting HIV-1-antibodies, that increased sensitivity could have been underestimated because of probable cyclization and polymerization of the linear peptide after solubilization in a carbonate buffer (pH 9.6). That experiment was repeated with the linear 87 and cyclic 87c peptides dissolved in a carbonate buffer (pH 9.6) as before and also in 10% acetic acid (pH 2.7). […] It is believed that cyclization and polymerization also occured in the wells of the microtiter plates although the exact proportion of cyclic peptide bound to the plates versus linear has not been as yet determined.

In the case of “96: cyclic peptide, amino acid positions 604-629 of gp41-HIV-1 (CTTAVPWNASWSNKSLEQIWNHTTWM; also: cyclic peptide, ring not given here; UniProt P04578 604-629, looked up, fragment) [Peptide 96]”, the “% Positive Sera correctly Idenfitied” value (HIV-1 positive sera [1]) was 100%.

In the case of “H-CGKIEPLGVAPTKAKRRVVQREKR-OH [Peptide 71]”, the “% Positive Sera correctly Idenfitied” value (HIV-1 positive sera [1]) was 83%.

In the case of “SGKLICTTAVPWNAS [short synthetic peptide covering residues 606 to 620 of gp41 (HIV-1)]”, the “specificity (samples correctly identified of samples tested)” value (HIV-1 positive sera [2]; US Patent Appl. No. 120,027) is listed as 63/63 and the sensitivity (HIV-1 positive sera [2]; prior-art reports, HIV-1 seropositive samples) is listed as 89%.

In the case of “12-amino acid sequence (600-611): 12-amino acid sequence (600-611) from gp41-(HIV-1), Gnann et al. (GKLICTTAVPWN; Transmembrane protein gp41; UniProt P04578 600-611, looked up, fragment)”, the “HIV-1 infected patients reactive of patients tested” value (HIV-1 positive sera [2]; Gnann et al., J. Infect. Dis. 156, 261-267, 1987, patients from the United States) is given as 131 out of 132, the “HIV-1 positive sera reacting of sera tested” value (HIV-1 positive sera [2]; Gnann et al.) is given as 22 out of 22 and the “positive sera detected of sera tested” value (HIV-1 positive sera [2]; tests at the Centers for Disease Control, Atlanta) is given as 78 out of 79.

In the case of SGKLIC, the “HIV-1 positive sera reacting of sera tested” value (HIV-1 positive sera [2]; Gnann et al.) is listed as “not immunoreactive with any of the 22 HIV-1 positive sera tested”.

In the case of `CC[C@H](C)[C@H](NC(=O)CNC(=O)[C@H](CC(C)C)NC(=O)[C@H](CC(C)C)NC(=O)[C@H](CCC(N)=O)NC(=O)[C@H](CCC(N)=O)NC(=O)[C@H](CC(=O)O)NC(=O)[C@H](CCCCN)NC(=O)[C@H](CC(C)C)NC(=O)[C@H](Cc1ccc(O)cc1)NC(=O)[C@H](CCCNC(=N)N)NC(=O)[C@H](CCC(=O)O)NC(=O)[C@@H](NC(=O)[C@H](C)NC(=O)[C@H](CC(C)C)NC(=O)[C@@H](NC(=O)[C@@H](N)CCCNC(=N)N)[C@@H](C)CC)C(C)C)C(=O)N[C@@H](Cc1c[nH]c2ccccc12)C(=O)NCC(=O)N[C@@H](CS)C(=O)N[C@@H](CO)C(=O)NCC(=O)N[C@@H](CCCCN)C(=O)N[C@@H](CC(C)C)C(=O)N[C@H](C(=O)N[C@@H](CS)C(=O)N[C@H](C(=O)N[C@H](C(=O)N[C@@H](C)C(=O)N[C@H](C(=O)N1CCC[C@H]1C(=O)N[C@@H](Cc1c[nH]c2ccccc12)C(=O)N[C@@H](CC(N)=O)C(=O)N[C@@H](C)C(=O)N[C@@H](CO)C(=O)O)C(C)C)[C@@H](C)O)[C@@H](C)O)[C@@H](C)CC` [Peptide 87] (H-RILAVERYLKDQQLLGIWGCSGKLICTTAVPWNAS-OH), the “stability in solution (HPLC, Ellman's test)” value ([3]; 10% acetic acid (pH 2.7)) was “remained linear” and the “stability in solution (HPLC analysis)” value ([3]; carbonate buffer (pH 9.6), room temperature) was “underwent cyclization and polymerization”.

For “88: cyclic peptide, amino acid positions 590-620 of gp41-HIV-1 (QQLLGIWGCSGKLICTTAVPWNASWSNKSLE; disulfide 9-15 (inferred); UniProt P04578 590-620, looked up, fragment) [Peptide 88]”, the “% Positive Sera correctly Idenfitied” value (HIV-1 positive sera [1]) was 100%.
